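Each compound was tested at five concentrations against cells in 96-well plates for 48 hours. GI50 is the concentration that inhibits growth by half.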 Active and inactive are the calls of the source. Rule as the data show it: active = GI50 up to about 1.1 µM and inactive = higher.
Experiments:
Assay in all cases: growth of human tumour cells (NCI), 48 h
[1] = tested on: 786-0
[2] = tested on: A498
[3] = tested on: A549
[4] = tested on: ACHN
[5] = tested on: CAKI-1
[6] = tested on: CCRF-CEM
[7] = tested on: COLO 205
[8] = tested on: DMS-114
[9] = tested on: DMS-273
[10] = tested on: EKVX
[11] = tested on: HCT-116
[12] = tested on: HCT-15
[13] = tested on: HL-60
[14] = tested on: HOP-62
[15] = tested on: HT-29
[16] = tested on: K562
[17] = tested on: KM-20L2
[18] = tested on: KM12
[19] = tested on: LOX IMVI
[20] = tested on: LXFL 529
[21] = tested on: M14
[22] = tested on: M19-MEL
[23] = tested on: MOLT-4
[24] = tested on: Malme-3M
[25] = tested on: NCI-H226
[26] = tested on: NCI-H460
[27] = tested on: NCI-H522
[28] = tested on: OVCAR-3
[29] = tested on: OVCAR-4
[30] = tested on: OVCAR-5
[31] = tested on: OVCAR-8
[32] = tested on: RPMI-8226
[33] = tested on: RXF 631
[34] = tested on: SF-268
[35] = tested on: SF-295
[36] = tested on: SF-539
[37] = tested on: SK-MEL-2
[38] = tested on: SK-MEL-5
[39] = tested on: SK-OV-3
[40] = tested on: SN12C
[41] = tested on: SNB-19
[42] = tested on: SNB-75
[43] = tested on: SR
[44] = tested on: SW-620
[45] = tested on: UACC-257
[46] = tested on: UACC-62
[47] = tested on: UO-31
[48] = tested on: DLD-1
[49] = tested on: HCC 2998
[50] = tested on: HOP-18
[51] = tested on: HOP-92
[52] = tested on: IGROV-1
[53] = tested on: NCI-H23
[54] = tested on: RXF 393
[55] = tested on: SK-MEL-28
[56] = tested on: SNB-78
[57] = tested on: TK-10
[58] = tested on: U-251
[59] = tested on: XF498

Measured: GI50

CCC1C2C=CC(CC2)N1S(=O)(=O)c1ccc(C)cc1 (stereo not given)
active: [25] 0.283 µM
22.8 µM: [12]
inactive: [1] 31.9 µM | [2] 33.9 µM | [3] 28.2 µM | [4] 35.9 µM | [5] 20.8 µM | [6] 22.4 µM | [7] 21.7 µM | [8] 20.3 µM | [9] 18.2 µM | [10] 27.8 µM | [11] 30.9 µM | [13] 4.22 µM | [14] 27.6 µM | [15] 24.4 µM | [16] 18.1 µM | [17] 17.3 µM | [18] 24.4 µM | [19] 15.8 µM | [20] 17.3 µM | [21] 31 µM | [22] 31.4 µM | [23] 32.6 µM | [24] 21.4 µM | [26] 23 µM | [27] 20.8 µM | [28] 33.7 µM | [29] 31.8 µM | [30] 22.3 µM | [31] > 10 µM | [32] 12.9 µM | [33] 27.4 µM | [34] 20.8 µM | [35] 29.2 µM | [36] 20.7 µM | [37] 14 µM | [38] 18.4 µM | [39] 26.1 µM | [40] 16.4 µM | [41] 24.4 µM | [42] > 10 µM | [43] 22.4 µM | [44] 16.8 µM | [45] 20.9 µM | [46] 11.2 µM | [47] 12.9 µM

Cc1ccc(NC(=O)C(=O)Cc2cc[n+]([O-])cc2)cc1
> 100 µM: [12]
inactive: [1] > 100 µM | [2] > 100 µM | [3] > 100 µM | [4] > 100 µM | [5] > 100 µM | [6] > 100 µM | [7] > 100 µM | [48] > 100 µM | [8] > 100 µM | [9] > 100 µM | [10] > 100 µM | [49] > 100 µM | [11] > 100 µM | [13] > 100 µM | [50] > 100 µM | [14] > 100 µM | [51] > 100 µM | [15] > 100 µM | [52] > 100 µM | [16] > 100 µM | [17] > 100 µM | [18] > 100 µM | [19] > 100 µM | [20] > 100 µM | [21] > 100 µM | [22] > 100 µM | [23] > 100 µM | [24] > 100 µM | [25] > 100 µM | [53] > 100 µM | [26] > 100 µM | [27] > 100 µM | [28] > 100 µM | [29] > 100 µM | [30] > 100 µM | [31] > 100 µM | [32] > 100 µM | [54] > 100 µM | [34] > 100 µM | [35] > 100 µM | [36] > 100 µM | [55] > 100 µM | [37] > 100 µM | [38] > 100 µM | [39] > 100 µM | [40] > 100 µM | [41] > 100 µM | [42] > 100 µM | [56] > 100 µM | [43] > 100 µM | [44] > 100 µM | [57] > 100 µM | [58] > 100 µM | [45] > 100 µM | [46] > 100 µM | [47] > 100 µM | [59] > 100 µM

CC1=C(C(=O)NCc2ccccc2)C(c2ccccc2O)C(C(=O)NCc2ccccc2)=C(C)N1
inactive: [1] 19.3 µM | [2] 19 µM | [3] 20.8 µM | [4] 16.4 µM | [5] 18.3 µM | [6] 26.5 µM | [7] 16.9 µM | [48] 15.1 µM | [8] 18.2 µM | [9] 14.6 µM | [10] 22.2 µM | [49] 21 µM | [11] 14.4 µM | [13] 17.3 µM | [50] 23.9 µM | [14] 19.9 µM | [51] 22.4 µM | [15] 19.5 µM | [52] 19.5 µM | [16] 36.1 µM | [17] 19.9 µM | [18] 16.6 µM | [19] 14.5 µM | [20] 15 µM | [21] 17.9 µM | [22] 18.2 µM | [23] 31.3 µM | [24] 15.7 µM | [25] 16.6 µM | [53] 17.1 µM | [26] 18.4 µM | [27] 16.5 µM | [28] 17.4 µM | [29] 17 µM | [30] 18.9 µM | [31] 18.7 µM | [32] 29.6 µM | [54] 17.9 µM | [34] 22.9 µM | [35] 21.1 µM | [36] 18.4 µM | [55] 18 µM | [37] 15.4 µM | [38] 15 µM | [39] 26.1 µM | [40] 17.1 µM | [41] 19.2 µM | [42] 23.6 µM | [56] 27.9 µM | [43] 28.9 µM | [44] 17.7 µM | [57] 17.9 µM | [58] 15.5 µM | [45] 16.1 µM | [46] 16.1 µM | [47] 16.7 µM | [59] 17 µM
13.6 µM: [12]

ClC[Si]12OCCN(CCO1)CCO2
inactive: [1] > 100 µM | [2] > 100 µM | [3] > 100 µM | [4] > 100 µM | [5] > 100 µM | [6] > 100 µM | [7] > 100 µM | [48] > 100 µM | [8] > 100 µM | [9] > 100 µM | [49] > 100 µM | [11] > 100 µM | [13] > 100 µM | [50] > 100 µM | [51] > 100 µM | [15] > 100 µM | [52] > 100 µM | [16] > 100 µM | [18] > 100 µM | [20] > 100 µM | [23] > 100 µM | [24] > 100 µM | [25] > 100 µM | [53] > 100 µM | [26] > 100 µM | [27] > 100 µM | [28] > 100 µM | [30] > 100 µM | [31] > 100 µM | [32] > 100 µM | [54] > 100 µM | [33] > 100 µM | [34] > 100 µM | [35] > 100 µM | [36] > 100 µM | [55] > 100 µM | [37] > 100 µM | [38] > 100 µM | [39] > 100 µM | [40] > 100 µM | [41] > 100 µM | [42] > 100 µM | [56] > 100 µM | [43] > 100 µM | [44] > 100 µM | [57] > 100 µM | [58] > 100 µM | [45] > 100 µM | [46] > 100 µM | [47] > 100 µM

O=S(=O)(Cc1ccccc1)SCc1ccccc1
18.4 µM: [12]
inactive: [1] 22.7 µM | [2] 25.3 µM | [3] 30.8 µM | [4] 39.6 µM | [5] > 50.9 µM | [6] 3.24 µM | [7] 19.5 µM | [48] 7.71 µM | [8] 17.5 µM | [9] 29.9 µM | [10] 30.2 µM | [49] 17.8 µM | [11] 10.1 µM | [13] 5.07 µM | [50] 18.9 µM | [14] 44.6 µM | [51] 18.5 µM | [15] 25.4 µM | [52] 31.6 µM | [16] 4.91 µM | [17] 21.6 µM | [18] 32.4 µM | [19] 16.6 µM | [21] 14.3 µM | [22] 22.2 µM | [23] 3.09 µM | [24] 27.3 µM | [25] 24.5 µM | [53] 23.1 µM | [26] 27.6 µM | [27] 10.7 µM | [28] 23.4 µM | [29] 21.2 µM | [30] > 74 µM | [31] 15.2 µM | [32] 13.3 µM | [54] 25.8 µM | [33] 19.1 µM | [34] 36.8 µM | [35] 24.7 µM | [36] 18.3 µM | [55] 34.1 µM | [37] 30.4 µM | [38] 21.4 µM | [39] 48.5 µM | [40] 24.7 µM | [41] 33.6 µM | [42] 33.9 µM | [56] 19.3 µM | [43] 10.9 µM | [44] 4.37 µM | [57] > 48.1 µM | [58] 26 µM | [45] 24.3 µM | [46] 23.3 µM | [47] 61.4 µM

— ChEMBL document CHEMBL1201862, “PubChem BioAssay data set” (2004)
